Measurements as given in EP4707280A1, “1,4-CINEOLE DERIVATIVE AND INTERMEDIATE THEREOF, HERBICIDE CONTAINING SAID DERIVATIVE AS ACTIVE INGREDIENT, METHOD FOR USING HERBICIDE, AND METHOD FOR PREPARING AGROCHEMICAL COMPOSITION” (HOKKO CHEMICAL INDUSTRY CO., LTD., priority 2023, dated 2024).

Legend:
Format in all cases: in vivo
[1] = test system: Echinochloa crus-galli; experiment: Test Example 3: herbicidal effect test by soil application in upland field; conditions: Echinochloa crus-galli, 120 g per 10 ares, sprayed one day after sowing, 14 days after application, read-out: weed inhibition rate
Summary of the method: (§1)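 Weed inhibition (%) was assessed 14 days after treatment, in duplicate per concentration group. Seeds had been mixed into the upper 1 cm of upland alluvial loam, and the soil surface was sprayed one day later with the diluted emulsifiable concentrate at 120 g active ingredient per 10 ares.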

[2] = test system: Digitaria ciliaris; experiment: as above; conditions: Digitaria ciliaris, 120 g per 10 ares, sprayed one day after sowing, 14 days after application, read-out: weed inhibition rate
Summary of the method: as §1

[3] = test system: Echinochloa crus-galli; experiment: Test Example 8: herbicidal effect test by stem and leaf treatment in upland field (low dose); conditions: Echinochloa crus-galli; 7.5 g per 10 ares; sprayed seven days after sowing, upland soil; 14 days after application; read-out: weed inhibition rate
[4] = test system: Digitaria ciliaris; experiment: as above; conditions: Digitaria ciliaris; 7.5 g per 10 ares; sprayed seven days after sowing, upland soil; 14 days after application; read-out: weed inhibition rate
[5] = test system: Monochoria vaginalis; experiment: Test Example 1: herbicidal effect test by soil application in paddy rice; conditions: Pontederia vaginalis, soil, 336 h; 120 g active ingredient per 10 ares; applied immediately after sowing, flooded pots; 14 days after application; read-out: weed inhibition rate
Summary of the method: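 Inhibition rate (%) read 14 days after treatment, duplicate pots. Water-diluted emulsifiable concentrate was applied by dropper at 120 g active ingredient/10 ares right after sowing. Seeds (30 per species, 0–1 cm deep) went into puddled paddy soil kept flooded at about 3 cm in a greenhouse.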

[6] = test system: Echinochloa crus-galli var. formosensis; experiment: Test Example 5: herbicidal effect test by soil application in paddy rice (low dose); conditions: Echinochloa crus-galli, soil, 336 h; 7.5 g per 10 ares; applied immediately after sowing, flooded pots; 14 days after application; read-out: weed inhibition rate
Summary of the method: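 Flooded-paddy soil application at low dose (7.5 g a.i. per 10 ares), given by dropper as diluted emulsifiable concentrate directly after sowing weeds 0–1 cm deep. Effect evaluated after 14 days in duplicate.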

[7] = test system: Scirpus juncoides; experiment: as above; conditions: Schoenoplectiella juncoides, 336 h, 7.5 g per 10 ares, applied immediately after sowing, flooded pots, 14 days after application, read-out: weed inhibition rate
Protocol: (§2) The present test was conducted in duplicate for each chemical concentration group, and the weed inhibition rate (%) was determined 14 days after chemical application using the following formula (Math. 1). [formula]
(§3) Wagner pots with an area of […] were filled with paddy soil, followed by addition of water and incorporation of chemical fertilizer (N:P:K = 16:16:16), after which puddling was performed. After that, seeds of Echinochloa crus-galli var. formosensis, broad-leaved weeds (Monochoria vaginalis), and Scirpus juncoides were sown at a depth of 0 cm to 1 cm, 30 seeds each. Immediately after sowing, the pots were flooded and a water depth of approximately 3 cm was maintained. Subsequent management was conducted in a glass greenhouse. Immediately thereafter, an emulsifiable concentrate prepared according to Formulation Example 5 using the compound shown below was diluted with water, and a specified amount of the diluted solution was applied by dropper. The amount of the active ingredient to be applied was equivalent to 7.5 g per 10 ares.
(§4) The present test was conducted in duplicate for each chemical concentration group, and the herbicidal effect was evaluated 14 days after chemical application using the same criteria as in Test Example 1.

[8] = test system: Echinochloa crus-galli; experiment: Test Example 4: herbicidal effect test by stem and leaf treatment in upland field; conditions: Echinochloa crus-galli; 120 g per 10 ares; sprayed seven days after sowing, upland soil; 14 days after application; read-out: weed inhibition rate
[9] = test system: Digitaria ciliaris; experiment: as above; conditions: Digitaria ciliaris; 120 g per 10 ares; sprayed seven days after sowing, upland soil; 14 days after application; read-out: weed inhibition rate
[10] = test system: Monochoria vaginalis; experiment: Test Example 5: herbicidal effect test by soil application in paddy rice (low dose); conditions: Pontederia vaginalis, 336 h, 7.5 g per 10 ares, applied immediately after sowing, flooded pots, 14 days after application, read-out: weed inhibition rate
Protocol: as §2, §3, §4

CC(C)[C@]12C[C@@H](OCc3ccccc3F)[C@](C)(C[C@@H]1O)O2 [1-30, (1R,2S,4S,5R)-5-((2-fluorobenzyl)oxy)-1-isopropyl-4-methyl-7-oxabicyclo[2.2.1]heptan-2-ol]
≥ 80%: inhibition at 1200 g/ha [1] | inhibition at 1200 g/ha [2] | inhibition at 75 g/ha [3] | inhibition at 75 g/ha [4] | pest or weed control at 1200 g/ha [5] | inhibition at 75 g/ha [6] | inhibition at 75 g/ha [7] | inhibition at 1200 g/ha [8] | inhibition at 1200 g/ha [9]

CC(C)[C@]12C[C@@H](OCc3c(Cl)cccc3Cl)[C@](C)(C[C@@H]1Br)O2 [1-712, (1S,2R,4R,5S)-5-bromo-2-[(2,6-dichlorophenyl)methoxy]-1-methyl-4-isopropyl-7-oxabicyclo[2.2.1]heptane]
≥ 80%: inhibition at 1200 g/ha [1] | inhibition at 1200 g/ha [2] | inhibition at 75 g/ha [3] | pest or weed control at 1200 g/ha [5] | inhibition at 75 g/ha [6] | inhibition at 75 g/ha [10] | inhibition at 1200 g/ha [8] | inhibition at 1200 g/ha [9]

CC(C)[C@]12C[C@@H](OCc3ccccc3Cl)[C@](C)(CC1=O)O2 [2-11, (1R,4S,5R)-5-((2-chlorobenzyl)oxy)-1-isopropyl-4-methyl-7-oxabicyclo[2.2.1]heptan-2-one]
≥ 80%: inhibition at 1200 g/ha [1] | inhibition at 1200 g/ha [2] | inhibition at 75 g/ha [3] | inhibition at 75 g/ha [4] | inhibition at 75 g/ha [6] | inhibition at 75 g/ha [7] | inhibition at 1200 g/ha [8] | inhibition at 1200 g/ha [9]

CC(C)CC1C[C@]2(C)O[C@@]1(C(C)C)C[C@H]2OCc1ccccc1F (stereo partly drawn) [1-915, (1S,2R,4R)-2-((2-fluorobenzyl)oxy)-5-isobutyl-4-isopropyl-1-methyl-7-oxabicyclo[2.2.1]heptane]
≥ 80%: inhibition at 1200 g/ha [1] | inhibition at 1200 g/ha [2] | inhibition at 75 g/ha [3] | inhibition at 75 g/ha [4] | pest or weed control at 1200 g/ha [5] | inhibition at 75 g/ha [6] | inhibition at 75 g/ha [7] | inhibition at 1200 g/ha [8] | inhibition at 1200 g/ha [9]

C=C1C[C@]2(C)O[C@@]1(C(C)C)C[C@H]2OCc1ccccc1C [2-72, (1R,4S,5R)-1-isopropyl-4-methyl-5-((2-methylbenzyl)oxy)-2-methylene-7-oxabicyclo[2.2.1]heptane]
≥ 80%: inhibition at 1200 g/ha [1] | inhibition at 1200 g/ha [2] | inhibition at 75 g/ha [3] | inhibition at 75 g/ha [4] | pest or weed control at 1200 g/ha [5] | inhibition at 75 g/ha [6] | inhibition at 75 g/ha [10] | inhibition at 1200 g/ha [8] | inhibition at 1200 g/ha [9]

CC(C)[C@]12C=C[C@](C)(O1)C(OCc1ccccc1F)C2 (mixture of isomers) [3-5, (1R,4S,SR)-5-[(2-fluorophenyl)methoxy]-4-methyl-1-isopropyl-7-oxabicyclo[2.2.1]hept-2-ene]
≥ 80%: inhibition at 1200 g/ha [1] | inhibition at 1200 g/ha [2] | inhibition at 75 g/ha [3] | inhibition at 75 g/ha [4] | pest or weed control at 1200 g/ha [5] | inhibition at 75 g/ha [6] | inhibition at 75 g/ha [7] | inhibition at 1200 g/ha [8] | inhibition at 1200 g/ha [9]

C=CCO[C@H]1C[C@]2(C)O[C@@]1(C(C)C)C[C@H]2OCc1ccccc1F [1-1602, (1S,2R,4R,5S)-2-[(2-fluorophenyl)methoxy]-1-methyl-4-isopropyl-5-prop-2-enoxy-7-oxabicyclo[2.2.1]heptane]
≥ 80%: inhibition at 1200 g/ha [1] | inhibition at 1200 g/ha [2] | inhibition at 75 g/ha [3] | inhibition at 75 g/ha [4] | inhibition at 75 g/ha [6] | inhibition at 75 g/ha [7] | inhibition at 1200 g/ha [8] | inhibition at 1200 g/ha [9]
